Measured values taken from patent US20180360810A1, “NUPHARIDINE COMPOUNDS AND DERIVATIVES THEREOF FOR THE TREATMENT OF CYSTEINE PROTEASE RELATED DISEASES” (B. G. NEGEV TECHNOLOGIES AND APPLICATIONS LTD., AT …, priority 2015, published 2018).

Columns and labels:
Format in all cases: biochemical
[1] = target: T1, papain (Carica papaya, UniProt P00784); experiment: Protease Fluorescent Detection Kit, inhibition of papain activity; conditions: FITC-labeled casein substrate; 10 μg papain in 50 μL; various concentrations of inhibitor
T1 sequence (P00784 134-345): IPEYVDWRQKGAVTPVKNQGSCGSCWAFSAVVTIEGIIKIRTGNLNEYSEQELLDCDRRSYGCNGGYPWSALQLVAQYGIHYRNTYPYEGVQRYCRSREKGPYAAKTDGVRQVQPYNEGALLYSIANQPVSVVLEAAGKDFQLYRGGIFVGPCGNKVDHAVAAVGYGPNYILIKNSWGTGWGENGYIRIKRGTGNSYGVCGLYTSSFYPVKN
Protocol: The Protease Fluorescent Detection Kit of Sigma Aldrich was used for measurement of protease activity using fluorometry. In exemplary embodiments, the method is based on the proteolytic hydrolysis of a proprietary formulation of a FITC-labeled casein substrate. The reaction mixture contained in a final volume of 50 μL, 10 μg papain and various concentrations of the candidate inhibitor.

[2] = target: T2, Human Cathepsin L (Homo sapiens, UniProt P07711); experiment: Cathepsin L fluorometric inhibition assay; conditions: substrate Ac-FR-AFC; CTSL Assay Buffer; molarity calculated on assumed molecular weight of 526 daltons; read-out: IC50 (Nanomolar)
T2 construct: purchased
Protocol: (§1) Inhibition assays were performed in triplicates using 96 well plates transparent for Calpain, Trypsin, Papain, Cathepsin L and Cathepsin B (167008; Nunc, Roskilde, Denmark), or black for Cathepsin S, Cathepsin D and Insulyzin (ide) (Greiner 96 Polystyrol GRE96fb) according to manufacturers' instructions. Briefly, reaction mixture of 100 μl contained: 45 μl of enzyme in assay buffer, 5 μl of inhibitors diluted in DMSO. 50 μl substrate prepared in assay buffer according to manufacturers' instructions. The inhibitor was serially diluted in DMSO to concentrations from 0.0075 μg/μL to 0.0000075 μg/μL. 5 μl DMSO was added to control sample. Cathepsin substrate mix was added last just before starting the fluorometric measurement. Data was collected for 1.5 h at 60 sec intervals. Molarity of inhibitors were calculated based on assumed molecular weight of 526 daltons as a reference value for comparative evaluations.

[3] = target: T3, Human rCathepsin D (Homo sapiens, UniProt P07339); experiment: Cathepsin D fluorometric inhibition assay; conditions: substrate ES001; pH 3.5; molarity calculated on assumed molecular weight of 526 daltons; read-out: IC50 (Nanomolar)
T3 construct: purchased
Protocol: as §1

[4] = target: T4, Human Insulyzin (ide) (Homo sapiens, UniProt P14735); experiment: Insulyzin (ide) fluorometric inhibition assay; conditions: substrate ES005; pH 7.5; molarity calculated on assumed molecular weight of 526 daltons; read-out: IC50 (Nanomolar)
T4 construct: purchased
T4 sequence (P14735 1-1019): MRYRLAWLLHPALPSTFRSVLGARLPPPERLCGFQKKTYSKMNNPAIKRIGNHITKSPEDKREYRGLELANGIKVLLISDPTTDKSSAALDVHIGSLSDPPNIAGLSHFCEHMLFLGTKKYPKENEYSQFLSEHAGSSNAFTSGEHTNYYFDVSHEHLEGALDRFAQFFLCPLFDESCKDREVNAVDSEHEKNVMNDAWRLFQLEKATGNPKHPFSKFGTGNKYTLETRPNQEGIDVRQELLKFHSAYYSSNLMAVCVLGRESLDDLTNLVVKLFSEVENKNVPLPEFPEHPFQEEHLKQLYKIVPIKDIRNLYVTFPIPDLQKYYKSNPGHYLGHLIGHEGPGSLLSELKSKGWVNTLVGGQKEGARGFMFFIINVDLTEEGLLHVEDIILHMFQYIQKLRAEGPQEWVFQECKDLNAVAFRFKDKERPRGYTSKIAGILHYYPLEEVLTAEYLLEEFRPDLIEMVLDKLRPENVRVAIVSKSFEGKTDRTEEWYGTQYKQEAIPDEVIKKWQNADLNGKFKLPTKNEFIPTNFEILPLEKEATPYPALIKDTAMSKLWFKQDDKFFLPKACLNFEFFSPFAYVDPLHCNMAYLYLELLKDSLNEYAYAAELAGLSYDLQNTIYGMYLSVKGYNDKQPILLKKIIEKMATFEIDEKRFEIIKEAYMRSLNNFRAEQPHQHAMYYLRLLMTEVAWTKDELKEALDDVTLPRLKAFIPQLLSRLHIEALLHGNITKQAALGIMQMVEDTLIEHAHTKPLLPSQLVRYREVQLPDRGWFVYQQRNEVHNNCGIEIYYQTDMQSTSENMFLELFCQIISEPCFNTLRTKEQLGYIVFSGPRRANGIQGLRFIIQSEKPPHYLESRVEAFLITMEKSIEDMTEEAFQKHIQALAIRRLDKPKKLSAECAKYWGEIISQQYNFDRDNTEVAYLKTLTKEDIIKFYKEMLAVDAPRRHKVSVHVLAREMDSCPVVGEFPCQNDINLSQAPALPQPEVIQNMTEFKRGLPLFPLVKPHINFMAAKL
Protocol: as §1

[5] = target: T5, Human Cathepsin B (Homo sapiens, UniProt P07858); experiment: Cathepsin B inhibition assay, Casein FITC; conditions: substrate Casein FITC; pH 6.5; molarity calculated on assumed molecular weight of 526 daltons; read-out: IC50 (Nanomolar)
T5 construct: purchased
Protocol: as §1

[6] = target: T6, Human Cathepsin S (Homo sapiens, UniProt P25774); experiment: Cathepsin S fluorometric inhibition assay; conditions: substrate ES002; pH 4.5; molarity calculated on assumed molecular weight of 526 daltons; read-out: IC50 (Nanomolar)
T6 construct: purchased
Protocol: as §1

[7] = tested on: Trypsin; experiment: Trypsin inhibition assay, Casein FITC; conditions: substrate Casein FITC; 0.3M potassium chloride, 0.1 mM EDTA, 3 mM DTT pH 6.5
Protocol: as §1
The specificity of the reaction was tested by treatment of trypsin, a serine protease with the above mentioned compounds and no inhibitory activity was found (as shown in FIG. 2).

[8] = tested on: Calpain; experiment: Calpain inhibition assay, Casein FITC; conditions: substrate Casein FITC; 0.3M potassium chloride, 0.1 mM EDTA, 3 mM DTT pH 6.5, 2 mM CaCl2
Protocol: as §1

T3 sequence (P07339 65-412): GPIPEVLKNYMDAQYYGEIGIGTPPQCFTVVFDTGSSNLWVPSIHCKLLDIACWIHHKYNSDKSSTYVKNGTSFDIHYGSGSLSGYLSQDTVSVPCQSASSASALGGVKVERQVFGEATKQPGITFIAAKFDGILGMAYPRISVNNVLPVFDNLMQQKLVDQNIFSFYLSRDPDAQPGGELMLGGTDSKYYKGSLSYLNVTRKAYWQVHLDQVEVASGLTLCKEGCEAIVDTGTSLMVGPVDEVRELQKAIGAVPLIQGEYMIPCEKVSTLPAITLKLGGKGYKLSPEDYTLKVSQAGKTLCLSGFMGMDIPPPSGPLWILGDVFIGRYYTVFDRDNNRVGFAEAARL
T2 sequence (P07711 114-333): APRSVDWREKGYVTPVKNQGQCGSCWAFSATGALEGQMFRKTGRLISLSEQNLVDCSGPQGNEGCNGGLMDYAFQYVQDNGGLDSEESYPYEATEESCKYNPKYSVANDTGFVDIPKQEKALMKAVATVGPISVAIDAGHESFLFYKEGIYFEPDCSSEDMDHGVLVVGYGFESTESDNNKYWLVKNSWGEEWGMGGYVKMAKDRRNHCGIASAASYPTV
T6 sequence (P25774 115-331): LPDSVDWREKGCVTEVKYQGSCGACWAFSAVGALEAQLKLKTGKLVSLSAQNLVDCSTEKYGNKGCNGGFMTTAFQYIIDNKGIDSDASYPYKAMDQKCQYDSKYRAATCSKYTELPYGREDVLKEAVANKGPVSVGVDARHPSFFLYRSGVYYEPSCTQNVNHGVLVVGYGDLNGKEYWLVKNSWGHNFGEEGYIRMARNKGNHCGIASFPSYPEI

Row | IC50 [2] [nM] | IC50 [3] [nM] | IC50 [4] [nM] | IC50 [5] [nM] | IC50 [6] [nM] | IC50 (Microgram/ml / Nanomolar) [7] | IC50 (Microgram/ml / Nanomolar) [8] | Compound | inhibition of papain activity (FIG. 1) [1]
1 |  |  |  |  |  |  |  | C1=[N+](CCCCc2ccccc2)CCCC12CC1(C=[N+](CCCCCc3ccccc3)CC1)CS2 (stereo not drawn) [6-61] | demonstrated an inhibition of papain activity
2 | 0.056 | 0.32 | 0.85 | 29.4 |  |  |  | 6 hydroxybinupharidine [Nup-4 sigma] | 
3 | 0.266 | 0.07 | 0.33 | 21.8 | 0.08 | no inhibition | no inhibition | 6 6′dihydroxybinupharidine [Nup-3 sigma] | 
